Measurements taken from patent US9061984B2 (University of Louisville Research Foundation, Inc., priority 2008, dated 2015).
pIC50: −log10 of the molar value. In brackets after ≈: the same amount, converted by molar mass. Several values for one entry are separate records, joined by “and”; a condition that tells them apart may be missing. Identical values can stand only once.

Columns and labels:
3T3 cells = assay: Cell growth inhibition bioassay (sulforhodamine B); assay type: cell-based, mouse; conditions: 48 h, SRB; for GI50: Mus musculus, NIH3T3, read-out: GI50 in indicated cell line: 3T3
Summary of the method: (§1)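 Cells were exposed to compound alongside matched solvent controls, then stained with sulforhodamine B. Percent growth inhibition was calculated from dye absorbance against the control.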

PC3 cells = assay: Cell growth inhibition bioassay (sulforhodamine B); assay type: cell-based; conditions: Homo sapiens, PC-3; 48 h, SRB; read-out: GI50 in indicated cell line: PC3
Experimental: The cytotoxicity of compounds was assayed as follows. […] Appropriate solvent controls were tested for comparison. The percent inhibition of cell growth relative to the control was evaluated colorimetrically using a sulforhodamine B dye by comparison to the control. The calorimetric procedure followed that published in Skehan et al., J. Nat. Cancer Inst., […], pp. 1107-1112 (1990) and Boyd & Paull, Drug Dev. Res., Vol. 34, pp. 91-109 (1995). […] The cell lines are: 3T3 cells are BALB/3T3 clone A31 embryonic mouse fibroblast cells; H460 cells are human large cell lung cancer cells; DU145 cells are human prostate carcinoma cells; MCF-7 cells are human breast adenocarcinoma cells; M-14 cells are human melanoma cells; HT-29 cells are human colon adenocarcinoma cells; PC3 cells are human prostate adenocarcinoma cells; K562 cells are human chronic myelogenous leukemia cells; and VERO cells are African Green Monkey kidney epithelial cells.

K562 cells = assay: Cell growth inhibition bioassay (sulforhodamine B); assay type: cell-based, human; conditions: 48 h, SRB; for GI50: Homo sapiens, K562, read-out: GI50 in indicated cell line: K562
Summary of the method: as §1

MCF-7 cells = assay: Cell growth inhibition bioassay (sulforhodamine B); assay type: cell-based, human; conditions: 48 h, SRB; for GI50: Homo sapiens, MCF7, read-out: GI50 in indicated cell line: MCF-7
Summary of the method: (§2)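 Human cancer cells (MCF-7 breast, DU145 and PC3 prostate, H460 large cell lung) were treated with compounds. Growth relative to solvent control was quantified by SRB protein stain.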

HT-29 cells = assay: Cell growth inhibition bioassay (sulforhodamine B); assay type: cell-based, human; conditions: 48 h, SRB; for GI50: Homo sapiens, HT-29, read-out: GI50 in indicated cell line: HT-29
Summary of the method: as §1

H460 cells = assay: Cell growth inhibition bioassay (sulforhodamine B); assay type: cell-based, human; conditions: 48 h, SRB; for GI50: Homo sapiens, NCI-H460, read-out: GI50 in indicated cell line: H460
Summary of the method: as §1

M-14 cells = assay: Cell growth inhibition bioassay (sulforhodamine B); assay type: cell-based, human; conditions: 48 h, SRB; for GI50: Homo sapiens, M14, read-out: GI50 in indicated cell line: M-14
Summary of the method: as §1

DU145 cells = assay: Cell growth inhibition bioassay (sulforhodamine B); assay type: cell-based, human; conditions: 48 h, SRB; for GI50: Homo sapiens, DU-145, read-out: GI50 in indicated cell line: DU145
Summary of the method: as §2

[1] = test system: Trypanosoma cruzi (Tulahuen C4); assay: In vitro anti-T. cruzi activity (β-galactosidase CPRG colorimetric assay in VERO monolayer); assay type: cell-based; conditions: for pIC50: Trypanosoma cruzi, TULAHUEN, Vero, Table 3, read-out: IC50 T. cruzi
VERO cells [2] = test system: VERO cells
M. tuberculosis H37Rv = assay: Conventional aerobic (MABA) culture assay, luminescence MIC; assay type: cell-based, Mycobacterium tuberculosis
peritoneal macrophages = assay: Toxicity to peritoneal macrophages (Trypan Blue count); assay type: cell-based, BALB/C mouse
VERO cells [3] = assay: Cell growth inhibition bioassay (sulforhodamine B); assay type: cell-based, African Green Monkey; conditions: 48 h, SRB
Summary of the method: as §1

[4] = test system: axenic amastigotes of L. amazonensis (strain MHOM/BR/76/LTB-012); conditions: read-out: L. amazonensis IC50; Table 8b
in vitro = conditions: African green monkey

SMILES | GI50 (3T3 cells) [µM] | GI50 (PC3 cells) [µM] | GI50 (K562 cells) [µM] | GI50 (MCF-7 cells) [µM] | GI50 (HT-29 cells) [µM] | GI50 (H460 cells) [µM] | GI50 (M-14 cells) [µM] | GI50 (DU145 cells) [µM] | pIC50 [1] | melting point [°C] | further results
COc1cc(O)c(C(=O)CCc2ccc3c(c2)OCO3)c(OC)c1 [Compound I-04, 3-(1,3-Benzodioxol-5-yl)-1-(2-hydroxy-4,6-dimethoxyphenyl)-1-propanone] | 21.5 | 39.1 | 28.2 | 42.4 | 145 | 105 | 82 | 60.2 | < 4.00 | 125 | T. cruzi Inhib. (%) ([1]; 10 μg/mL of each compound, 120 hours): 12.96% and 3.24%
CC(C)=NNc1ncnc2sc3c(c12)CCCC3 [II-44] |  |  |  |  |  |  |  |  |  |  | Cytotoxicity VERO Lab B (VERO cells [2]): 10.0; GI50 in indicated cell line: 3T3 (3T3 cells): <0.98 µg/mL; MIC MABA (M. tuberculosis H37Rv; aerobic, 7 days, H37Rv): 62.4 µg/mL (≈ 240 µM); pIC50 (peritoneal macrophages): 4.21; GI50 in indicated cell line: K562 (K562 cells): 3.5 µg/mL (≈ 13.4 µM); GI50 in indicated cell line: MCF-7 (MCF-7 cells): 3.2 µg/mL (≈ 12.3 µM); GI50 in indicated cell line: HT-29 (HT-29 cells): 8.6 µg/mL (≈ 33 µM); GI50 in indicated cell line: H460 (H460 cells): 2.4 µg/mL (≈ 9.22 µM); GI50 in indicated cell line: M-14 (M-14 cells): 6.1 µg/mL (≈ 23.4 µM); GI50 in indicated cell line: DU145 (DU145 cells): 3.0 µg/mL (≈ 11.5 µM); GI50 in indicated cell line: VERO (VERO cells [3]): 3.7 µg/mL (≈ 14.2 µM); pIC50 [4]: 4.97; Cytotoxicity VERO cell (VERO cell): 32.7 µg/mL; T. cruzi IC50 Lab A ([1]; Lab A): 3.2 µg/mL; T. cruzi IC50 Lab B ([1]; Lab B): 3.7 µg/mL
COc1ccc(CCC(=O)c2c(O)cc(OC)cc2OC)cc1 [Compound I-03, 1-(2-Hydroxy-4,6-dimethoxyphenyl)-3-(4-methoxyphenyl)-1-propanone] | > 197 | > 197 | > 197 | > 197 | > 197 | > 197 | > 197 | > 197 | < 4.00 | 107 | 
CO[C@H]1/C=C/O[C@@]2(C)Oc3c(C)c(O)c4c(O)c(c(/C=N/N5CCN(C)CC5)c(O)c4c3C2=O)NC(=O)/C(C)=C\C=C\[C@H](C)[C@H](O)[C@@H](C)[C@@H](O)[C@@H](C)[C@H](OC(C)=O)[C@@H]1C [Rifampin, reference compound] |  |  |  |  |  |  |  |  |  |  | MIC (M. tuberculosis H37Rv; Mycobacterium tuberculosis, 168 h, aerobic, 7 days, H37Rv): 0.09 µg/mL (≈ 0.109 µM); Selectivity Index H37Rv (M. tuberculosis H37Rv; VERO vs MABA MIC): 1025.8; IC50 (in vitro): 97.2 µg/mL (≈ 118 µM)
